Data taken from the NIST ThermoML archive (doi:10.1016/j.jct.2005.07.015).

Details: Liquid, Closed cell (Static) method

CCO [ethanol]
Details | vapor or sublimation pressure [kPa]
298.15 K | 7.878
303.15 K | 10.47
308.15 K | 13.77
313.15 K | 17.91
318.15 K | 23.07
323.15 K | 29.46
